Measurements from patent US6737383B1, “Herbicidal oxadiazolidines” (priority 1999, dated 2004).

Key:
duck salad = assay: Test B flood test duck salad; format: in vivo, Heteranthera limosa
Summary of the method: (§1)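 Flood test on plants grown to the 2-leaf stage; treated plants kept in greenhouse twelve to sixteen days, then visually rated against controls on a 0 (no effect) to 10 (complete control) scale.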

surinam grass = assay: Test B pre/postemergence surinam grass; format: in vivo, Brachiaria decumbens
Summary of the method: (§2)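 Response is a visual 0-to-10 score relative to untreated plants, where 0 means no effect and 10 means complete control, taken twelve to sixteen days after application. Treatments went onto soil at planting and onto foliage of 1- to 4-leaf plants, using a surfactant-containing non-phytotoxic solvent.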

wild oat = assay: Test B pre/postemergence wild oat; format: in vivo, Avena fatua; conditions: for Plant response rating, Wild oats: Rate 250 g/ha
Summary of the method: as §2

soybean = assay: Test B pre/postemergence soybean; format: in vivo, Glycine max
Summary of the method: as §2

purple nutsedge = assay: Test B pre/postemergence purple nutsedge; format: in vivo, Cyperus rotundus
Summary of the method: as §2

bedstraw = assay: Test B pre/postemergence bedstraw; format: in vivo, Galium aparine
Summary of the method: as §2

giant foxtail = assay: Test B pre/postemergence giant foxtail; format: in vivo, Setaria faberii
Summary of the method: as §2

cocklebur = assay: Test B pre/postemergence cocklebur; format: in vivo, Xanthium strumarium
Summary of the method: as §2

wheat = assay: Test B pre/postemergence wheat; format: in vivo, Triticum aestivum; conditions: for Plant response rating, Wheat: Rate 250 g/ha
Summary of the method: as §2

pigweed = assay: Test B pre/postemergence pigweed; format: in vivo, Amaranthus retroflexus
Summary of the method: as §2

velvetleaf = assay: Test B pre/postemergence velvetleaf; format: in vivo, Abutilon theophrasti; conditions: for Plant response rating, Velvetleaf: Rate 250 g/ha
Summary of the method: as §2

corn = assay: Test B pre/postemergence corn; format: in vivo, Zea mays
Summary of the method: as §2

sugar beet = assay: Test B pre/postemergence sugar beet; format: in vivo, Beta vulgaris; conditions: for Plant response rating, Sugarbeets: Rate 250 g/ha
Summary of the method: as §2

rape = assay: Test B pre/postemergence rape; format: in vivo, Brassica napus
Summary of the method: as §2

rice = assay: Test B flood test rice; format: in vivo, Oryza sativa
Summary of the method: as §1

smallflower flatsedge = assay: Test B flood test smallflower flatsedge; format: in vivo, Cyperus difformis
Summary of the method: as §1

[1] = Postemergence (flood test species), Rate 125 g/ha, scale of 0 to 10 where 0 is no effect and 10 is complete control
[2] = Rate 62 g/ha, Postemergence section, flood test species, scale of 0 to 10 where 0 is no effect and 10 is complete control
[3] = Rate 250 g/ha, headed Pre-emergence (flood test species), scale 0 to 10 (0 no effect, 10 complete control)
[4] = Rate 500 g/ha, headed Pre-emergence (flood test species), scale 0 to 10 (0 no effect, 10 complete control)
[5] = Rate 500 g/ha, listed under Postemergence (flood test species), scale 0 to 10, 0 no effect, 10 complete control
[6] = Rate 1000 g/ha, Pre-emergence (as headed), scale 0 to 10
[7] = Rate 2000 g/ha, Pre-emergence (as headed), scale 0 to 10
[8] = Postemergence, Rate 62 g/ha, scale 0 to 10, 0 is no effect, 10 is complete control
[9] = Postemergence, Rate 250 g/ha, scale 0 to 10, 0 no effect, 10 complete control
[10] = Preemergence, Rate 62 g/ha, scale 0 to 10 (0 no effect, 10 complete control)
[11] = Preemergence, Rate 125 g/ha, scale 0 to 10 (0 no effect, 10 complete control)
[12] = Preemergence, Rate 250 g/ha, scale of 0 to 10 where 0 is no effect and 10 is complete control
[13] = Preemergence, Rate 500 g/ha, scale 0 to 10 (0 no effect, 10 complete control)
[14] = Rate 125 g/ha, Postemergence, scale 0 to 10, 0 no effect, 10 complete control
[15] = Postemergence, Rate 125 g/ha, scale of 0 to 10 where 0 is no effect and 10 is complete control
[16] = Preemergence, Rate 125 g/ha, 0 is no effect, 10 is complete control
[17] = Preemergence, scale of 0 to 10 where 0 is no effect and 10 is complete control
[18] = Rate 62 g/ha, Postemergence, scale of 0 to 10 where 0 is no effect and 10 is complete control
[19] = Postemergence, scale 0 to 10, 0 is no effect, 10 is complete control
[20] = Rate 500 g/ha, Postemergence, scale 0 to 10, 0 no effect, 10 complete control
[21] = Rate 250 g/ha, Postemergence, scale 0 to 10, 0 is no effect, 10 is complete control
[22] = Rate 250 g/ha, Postemergence (flood test), scale 0 to 10, 0 is no effect, 10 is complete control

CC(C)N(C(=O)n1oc(=O)n(C2CCCCC2)c1=O)c1ccc(Cl)cc1 [Compound 111]
4: B. signalgrass plant response rating (surinam grass; [13]) | Wild oats plant response rating (wild oat; [13]) | Plant response rating, Soybean (soybean; [11]) | Plant response rating, Soybean (soybean; [12]) | Plant response rating, Soybean (soybean; [21]) | Plant response rating, Redroot pigweed (pigweed; [21]) | Plant response rating, Corn (corn; [12]) | Corn plant response rating (corn; [13]) | Sugarbeets plant response rating (sugar beet; [13]) | Sugarbeets plant response rating (sugar beet; [20]) | Plant response rating, Rape (rape; [12]) | Rape plant response rating (rape; [13]) | Rape plant response rating (rape; [20])
9: Plant response rating, Giant foxtail (giant foxtail; [11]) | Giant foxtail plant response rating (giant foxtail; [20])
7: Bedstraw plant response rating (bedstraw; [9]) | Velvetleaf plant response rating (velvetleaf; [13])
6: Plant response rating, Redroot pigweed (pigweed; [11]) | Redroot pigweed plant response rating (pigweed; [20])
0: Ducksalad plant response rating (duck salad; [1]) | Ducksalad plant response rating (duck salad; [2]) | Ducksalad plant response rating (duck salad; [3]) | Plant response rating, Ducksalad (duck salad; [4]) | Ducksalad plant response rating (duck salad; [5]) | Ducksalad plant response rating (duck salad; [6]) | Ducksalad plant response rating (duck salad; [7]) | Ducksalad plant response rating (duck salad; flood test, listed under Postemergence, Rate 250 g/ha, scale 0 to 10, 0 no effect, 10 complete control) | B. signalgrass plant response rating (surinam grass; [8]) | B. signalgrass plant response rating (surinam grass; [9]) | B. signalgrass plant response rating (surinam grass; [10]) | B. signalgrass plant response rating (surinam grass; [14]) | B. signalgrass plant response rating (surinam grass; Rate 500 g/ha, Postemergence, scale of 0 to 10 where 0 is no effect and 10 is complete control) | Wild oats plant response rating (wild oat; [15]) | Wild oats plant response rating (wild oat; [10]) | Wild oats plant response rating (0 to 10 scale) (wild oat; [16]) | Wild oats plant response rating (wild oat; [18]) | Soybean plant response rating (soybean; [10]) | Nutsedge plant response rating (purple nutsedge; [15]) | Nutsedge plant response rating (purple nutsedge; [9]) | Nutsedge plant response rating (purple nutsedge; [10]) | Plant response rating, Nutsedge (purple nutsedge; [11]) | Plant response rating, Nutsedge (purple nutsedge; [12]) | Nutsedge plant response rating (purple nutsedge; [13]) | Nutsedge plant response rating (purple nutsedge; [18]) | Nutsedge plant response rating (purple nutsedge; [20]) | Bedstraw plant response rating (bedstraw; [10]) | Plant response rating, Bedstraw (bedstraw; [11]) | Plant response rating, Bedstraw (bedstraw; [12]) | Cocklebur plant response rating (cocklebur; [15]) | Cocklebur plant response rating (cocklebur; [10]) | Plant response rating, Cocklebur (cocklebur; [11]) | Plant response rating, Cocklebur (cocklebur; [12]) | Cocklebur plant response rating (cocklebur; [13]) | Cocklebur plant response rating (cocklebur; [18]) | Wheat plant response rating (wheat; [15]) | Wheat plant response rating (wheat; [10]) | Wheat plant response rating (0 to 10 scale) (wheat; [16]) | Plant response rating, Wheat (wheat; [17]) | Wheat plant response rating (wheat; [18]) | Plant response rating, Wheat (wheat; [19]) | Wheat plant response rating (wheat; [20]) | Velvetleaf plant response rating (velvetleaf; [15]) | Velvetleaf plant response rating (velvetleaf; [10]) | Velvetleaf plant response rating (0 to 10 scale) (velvetleaf; [16]) | Velvetleaf plant response rating (velvetleaf; [18]) | Plant response rating, Velvetleaf (velvetleaf; [19]) | Corn plant response rating (corn; [15]) | Corn plant response rating (corn; [9]) | Corn plant response rating (corn; [10]) | Corn plant response rating (corn; [18]) | Corn plant response rating (corn; [20]) | Sugarbeets plant response rating (sugar beet; [10]) | Sugarbeets plant response rating (0 to 10 scale) (sugar beet; [16]) | Rape plant response rating (rape; [10]) | Plant response rating, Rape (rape; [11]) | Rice plant response rating (rice; [1]) | Rice plant response rating (rice; [2]) | Plant response rating, Rice (rice; [22]) | Rice plant response rating (rice; [3]) | Plant response rating, Rice (rice; [4]) | Rice plant response rating (rice; [5]) | Rice plant response rating (rice; [6]) | Rice plant response rating (rice; [7]) | S. Flatsedge plant response rating (smallflower flatsedge; [1]) | S. Flatsedge plant response rating (smallflower flatsedge; Pre-emergence, Rate 1000 g/ha, scale 0 to 10 (0 no effect, 10 complete control)) | S. Flatsedge plant response rating (smallflower flatsedge; [2]) | Plant response rating, S. Flatsedge (smallflower flatsedge; [22]) | S. Flatsedge plant response rating (smallflower flatsedge; [3]) | Plant response rating, S. Flatsedge (smallflower flatsedge; [4]) | S. Flatsedge plant response rating (smallflower flatsedge; [5]) | S. Flatsedge plant response rating (smallflower flatsedge; [7])
3: Soybean plant response rating (soybean; [15]) | Soybean plant response rating (soybean; [18]) | Bedstraw plant response rating (bedstraw; [13]) | Cocklebur plant response rating (cocklebur; [20]) | Wheat plant response rating (wheat; [13]) | Redroot pigweed plant response rating (pigweed; [15]) | Redroot pigweed plant response rating (pigweed; [10]) | Redroot pigweed plant response rating (pigweed; [18]) | Plant response rating, Velvetleaf (velvetleaf; [17]) | Sugarbeets plant response rating (sugar beet; [15]) | Plant response rating, Sugarbeets (sugar beet; [17]) | Plant response rating, Sugarbeets (sugar beet; [19]) | Rape plant response rating (rape; [15]) | Rape plant response rating (rape; [9]) | Rape plant response rating (rape; [18])
1: Plant response rating, B. signalgrass (surinam grass; [11]) | Plant response rating, B. signalgrass (surinam grass; [12]) | Plant response rating, Wild oats (wild oat; [19]) | Plant response rating, Corn (corn; [11])
8: Giant foxtail plant response rating (giant foxtail; [10]) | Plant response rating, Redroot pigweed (pigweed; [12]) | Redroot pigweed plant response rating (pigweed; [13])
5: Soybean plant response rating (soybean; [13]) | Soybean plant response rating (soybean; [20]) | Bedstraw plant response rating (bedstraw; [8]) | Bedstraw plant response rating (bedstraw; [14]) | Giant foxtail plant response rating (giant foxtail; [9])
2: Plant response rating, Wild oats (wild oat; [17]) | Wild oats plant response rating (wild oat; [20]) | Giant foxtail plant response rating (giant foxtail; [15]) | Giant foxtail plant response rating (giant foxtail; [18]) | Cocklebur plant response rating (cocklebur; [9]) | Velvetleaf plant response rating (velvetleaf; [20]) | Sugarbeets plant response rating (sugar beet; [18])
10: Plant response rating, Giant foxtail (giant foxtail; [12]) | Giant foxtail plant response rating (giant foxtail; [13])
